Source: ChEMBL document CHEMBL4308875, “Synthesis, antituberculosis studies and biological evaluation of new quinoline derivatives carrying 1,2,4-oxadiazole moiety” (Bioorg Med Chem Lett, 2019)
Values after ≈ are worked out from the molar mass of the structure shown.

What was measured:
[1] = test system: Mycobacterium tuberculosis; experiment: Antitubercular activity against Mycobacterium tuberculosis H37Rv after 15 days by turbidometric method; assay type: functional; settings: 360 h
[2] = test system: Mycobacterium tuberculosis; experiment: Bacteriostatic activity against Mycobacterium tuberculosis H37Rv assessed as colony forming units at 0.002 to 64 ug/ml measured day 7 post dose by time kill assay (reference value: 0 log10CFU/ml); assay type: functional
[3] = Metabolic stability in human liver microsomes assessed as compound remaining at 1 uM after 120 mins by LC-MS/MS analysis (reference value: 100%)
[4] = Metabolic stability in human liver microsomes assessed as compound remaining at 1 uM after 30 mins in presence of G-6-P, G-6-PDH, MgCl2 and NADP+ by LC-MS/MS analysis (reference value: 100%)
[5] = MRTlast in BALB/c mouse at 30 mg/kg, po; assay type: ADME, organism-based; settings: in vivo
[6] = test system: Mycobacterium tuberculosis; experiment: Bacteriostatic activity against Mycobacterium tuberculosis H37Rv assessed as colony forming units at 0.002 to 64 ug/ml measured day 21 post dose by time kill assay (reference value: 0 log10CFU/ml); assay type: functional
[7] = Half life in BALB/c mouse at 30 mg/kg, po; assay type: ADME, organism-based; settings: in vivo
[8] = Tmax in BALB/c mouse at 30 mg/kg, po; assay type: ADME, organism-based; settings: in vivo
[9] = AUC (infinity) in BALB/c mouse at 30 mg/kg, po; assay type: ADME, organism-based; design: dose 30 mg/kg, time infinity, route oral; settings: in vivo
[10] = test system: Escherichia coli; experiment: Antibacterial activity against Escherichia coli ATCC 25922 after 15 days by turbidometric method; assay type: functional; settings: ATCC 25922, 360 h
[11] = test system: Mycobacterium tuberculosis; experiment: Bacteriostatic activity against Mycobacterium tuberculosis H37Rv assessed as colony forming units at 0.002 to 64 ug/ml measured day 3 post dose by time kill assay (reference value: 0 log10CFU/ml); assay type: functional
[12] = Metabolic stability in human liver microsomes assessed as compound remaining at 1 uM after 60 mins in presence of G-6-P, G-6-PDH, MgCl2 and NADP+ by LC-MS/MS analysis (reference value: 100%)
[13] = test system: Pseudomonas aeruginosa; experiment: Antibacterial activity against Pseudomonas aeruginosa ATCC 15442 after 15 days by turbidometric method; assay type: functional; settings: ATCC 15442, 360 h
[14] = AUClast in BALB/c mouse at 30 mg/kg, po; assay type: ADME, organism-based; design: dose 30 mg/kg, route oral, time 0 - last; settings: in vivo
[15] = Cmax in BALB/c mouse at 30 mg/kg, po; assay type: ADME, organism-based; design: dose 30 mg/kg, route oral; settings: in vivo
[16] = Metabolic stability in human liver microsomes assessed as compound remaining at 1 uM after 120 mins in presence of G-6-P, G-6-PDH, MgCl2 and NADP+ by LC-MS/MS analysis (reference value: 100%)
[17] = Metabolic stability in human liver microsomes assessed as compound remaining at 1 uM after 15 mins in presence of G-6-P, G-6-PDH, MgCl2 and NADP+ by LC-MS/MS analysis (reference value: 100%)
[18] = test system: Staphylococcus aureus; experiment: Antibacterial activity against Staphylococcus aureus ATCC 33591 after 15 days by turbidometric method; assay type: functional; settings: ATCC 33591, 360 h
[19] = test system: Klebsiella pneumoniae; experiment: Antibacterial activity against Klebsiella pneumoniae ATCC 700603 after 15 days by turbidometric method; assay type: functional; settings: Klebsiella pneumoniae, 700603, 360 h
[20] = test system: HepG2; experiment: Cytotoxicity against human HepG2 cells after 24 hrs by MTT assay; assay type: cell-based; settings: HepG2, 24 h
[21] = test system: Acinetobacter baumannii; experiment: Antibacterial activity against Acinetobacter baumannii ATCC 19606 after 15 days by turbidometric method; assay type: functional; settings: ATCC 19606 = CIP 70.34 = JCM 6841
[22] = Extrapolated AUC in BALB/c mouse at 30 mg/kg, po; assay type: ADME, organism-based; settings: in vivo
[23] = test system: Mycobacterium tuberculosis; experiment: Bacteriostatic activity against Mycobacterium tuberculosis H37Rv assessed as colony forming units at 0.002 to 64 ug/ml measured day 14 post dose by time kill assay (reference value: 0 log10CFU/ml); assay type: functional
[24] = test system: Enterococcus faecium; experiment: Antibacterial activity against Enterococcus faecium ATCC 51559 after 15 days by turbidometric method; assay type: functional; settings: ATCC 51559, 360 h

N#Cc1cccc(-c2nc(CN3CCN(c4ccnc5cc(Cl)ccc45)CC3)no2)c1
MIC [1]: 64 µg/mL (≈ 149 µM)

CC(C)c1ccc(-c2nc(CN3CCN(c4ccnc5cc(-c6cc(F)cc(F)c6)ccc45)CC3)no2)cc1
MIC [1]: 32 µg/mL (≈ 60.9 µM)

CC(C)c1ccc(-c2nc(CN3CCN(c4ccnc5cc(Cl)ccc45)CC3)no2)cc1
Emax [2]: 1.1 log10CFU/ml | remaining at 2 h, 1 µM [3]: 89.2% | remaining at 0.5 h, 1 µM [4]: 67.2% | MRT last [5]: 1.5 h | Emax [6]: 0.9 log10CFU/ml | half-life [7]: 97.8 min | Tmax [8]: 60 min | AUC(0-inf) [9]: 5330 ng·h/mL | MIC [10]: > 32 µg/mL | Emax [11]: 0.2 log10CFU/ml | remaining at 1 h, 1 µM [12]: 55.3% | MIC [13]: > 32 µg/mL | AUC(0-t) [14]: 5270 ng·h/mL | Cmax [15]: 2500 ng/mL | remaining at 2 h, 1 µM [16]: 39.7% | remaining at 0.25 h, 1 µM [17]: 82% | MIC [18]: > 32 µg/mL | MIC [1]: 0.5 µg/mL (≈ 1.12 µM) | MIC [19]: > 32 µg/mL | IC50 [20]: > 100 µM | MIC [21]: > 32 µg/mL | %AUCextra [22]: 1.17% | Emax [23]: 0.9 log10CFU/ml | MIC [24]: > 32 µg/mL

Cc1cccc(-c2nc(CN3CCN(c4ccnc5cc(-c6ccncc6)ccc45)CC3)no2)c1C
MIC [1]: 2 µg/mL (≈ 4.2 µM)

N#Cc1cccc(-c2nc(CN3CCN(c4ccnc5cc(-c6cc(F)cc(F)c6)ccc45)CC3)no2)c1
MIC [1]: > 256 µg/mL

CC(C)c1ccc(-c2nc(CN3CCN(c4ccnc5cc(-c6ccncc6)ccc45)CC3)no2)cc1
MIC [1]: 2 µg/mL (≈ 4.08 µM)

Cc1cccc(-c2nc(CN3CCN(c4ccnc5cc(-c6cccnc6)ccc45)CC3)no2)c1C
remaining at 2 h, 1 µM [3]: 78% | remaining at 0.5 h, 1 µM [4]: 47.3% | MRT last [5]: 1.34 h | half-life [7]: 56.4 min | Tmax [8]: 30 min | AUC(0-inf) [9]: 8310 ng·h/mL | MIC [10]: > 32 µg/mL | remaining at 1 h, 1 µM [12]: 31.7% | MIC [13]: > 32 µg/mL | AUC(0-t) [14]: 8290 ng·h/mL | Cmax [15]: 6410 ng/mL | remaining at 2 h, 1 µM [16]: 18.1% | remaining at 0.25 h, 1 µM [17]: 65.1% | MIC [18]: > 32 µg/mL | MIC [1]: 0.25 µg/mL (≈ 0.525 µM) | MIC [19]: > 32 µg/mL | IC50 [20]: > 100 µM | MIC [21]: > 32 µg/mL | %AUCextra [22]: 0.22% | MIC [24]: > 32 µg/mL

COc1cc(OC)cc(-c2nc(CN3CCN(c4ccnc5cc(Cl)ccc45)CC3)no2)c1
MIC [1]: 32 µg/mL (≈ 68.7 µM)

c1cncc(-c2ccc3c(N4CCN(Cc5noc(C6CCCC6)n5)CC4)ccnc3c2)c1
remaining at 2 h, 1 µM [3]: 97.8% | remaining at 0.5 h, 1 µM [4]: 54.8% | MRT last [5]: 1.31 h | half-life [7]: 45 min | Tmax [8]: 30 min | AUC(0-inf) [9]: 20200 ng·h/mL | MIC [10]: 256 µg/mL (≈ 581 µM) | remaining at 1 h, 1 µM [12]: 38% | MIC [13]: 512 µg/mL (≈ 1160 µM) | AUC(0-t) [14]: 20000 ng·h/mL | Cmax [15]: 9600 ng/mL | remaining at 2 h, 1 µM [16]: 21.9% | remaining at 0.25 h, 1 µM [17]: 60.8% | MIC [18]: 512 µg/mL (≈ 1160 µM) | MIC [1]: 0.25 µg/mL (≈ 0.567 µM) | MIC [19]: 256 µg/mL (≈ 581 µM) | IC50 [20]: > 50 µM | MIC [21]: 512 µg/mL (≈ 1160 µM) | %AUCextra [22]: 0.71% | MIC [24]: 64 µg/mL (≈ 145 µM)

Clc1ccc2c(N3CCN(Cc4noc(C5CCCC5)n4)CC3)ccnc2c1
MIC [1]: 32 µg/mL (≈ 80.4 µM)

COc1cc(OC)cc(-c2nc(CN3CCN(c4ccnc5cc(-c6ccncc6)ccc45)CC3)no2)c1
MIC [1]: > 128 µg/mL

CC(C)c1ccc(-c2nc(CN3CCN(c4ccnc5cc(-c6cccnc6)ccc45)CC3)no2)cc1
remaining at 2 h, 1 µM [3]: 76.5% | remaining at 0.5 h, 1 µM [4]: 56.8% | MRT last [5]: 1.38 h | half-life [7]: 63 min | Tmax [8]: 30 min | AUC(0-inf) [9]: 11900 ng·h/mL | MIC [10]: > 32 µg/mL | remaining at 1 h, 1 µM [12]: 40.1% | MIC [13]: > 32 µg/mL | AUC(0-t) [14]: 11900 ng·h/mL | Cmax [15]: 7440 ng/mL | remaining at 2 h, 1 µM [16]: 23% | remaining at 0.25 h, 1 µM [17]: 74.1% | MIC [18]: > 32 µg/mL | MIC [1]: 0.25 µg/mL (≈ 0.51 µM) | MIC [19]: > 32 µg/mL | IC50 [20]: > 100 µM | MIC [21]: > 32 µg/mL | %AUCextra [22]: 0.6% | MIC [24]: > 32 µg/mL

Fc1cc(F)cc(-c2nc(CN3CCN(c4ccnc5cc(Cl)ccc45)CC3)no2)c1
MIC [1]: > 128 µg/mL

c1cc(-c2ccc3c(N4CCN(Cc5noc(C6CCCC6)n5)CC4)ccnc3c2)ccn1
MIC [1]: 2 µg/mL (≈ 4.54 µM)

COc1cc(OC)cc(-c2nc(CN3CCN(c4ccnc5cc(-c6cc(F)cc(F)c6)ccc45)CC3)no2)c1
MIC [1]: 256 µg/mL (≈ 471 µM)

Fc1cc(F)cc(-c2ccc3c(N4CCN(Cc5noc(C6CCCC6)n5)CC4)ccnc3c2)c1
MIC [1]: 128 µg/mL (≈ 269 µM)

Fc1cc(F)cc(-c2nc(CN3CCN(c4ccnc5cc(-c6ccncc6)ccc45)CC3)no2)c1
MIC [1]: 16 µg/mL (≈ 33 µM)

Cc1cccc(-c2nc(CN3CCN(c4ccnc5cc(-c6cc(F)cc(F)c6)ccc45)CC3)no2)c1C
MIC [1]: 32 µg/mL (≈ 62.6 µM)

Fc1cc(F)cc(-c2ccc3c(N4CCN(Cc5noc(-c6cc(F)cc(F)c6)n5)CC4)ccnc3c2)c1
MIC [1]: 64 µg/mL (≈ 123 µM)

N#Cc1cccc(-c2nc(CN3CCN(c4ccnc5cc(-c6ccncc6)ccc45)CC3)no2)c1
MIC [1]: 32 µg/mL (≈ 67.6 µM)

Cc1cccc(-c2nc(CN3CCN(c4ccnc5cc(Cl)ccc45)CC3)no2)c1C
MIC [1]: 64 µg/mL (≈ 147 µM)

COc1ccc(CCN2CCC(Nc3nc4ccccc4n3Cc3ccc(F)cc3)CC2)cc1 [ASTEMIZOLE]
IC50 [20]: 7.97 µM

O=C(O)c1cn(C2CC2)c2cc(N3CCNCC3)c(F)cc2c1=O [CIPROFLOXACIN]
MIC [10]: 0.007 µg/mL (≈ 0.0211 µM) | MIC [13]: < 1 µg/mL | MIC [18]: < 1 µg/mL | MIC [19]: < 1 µg/mL | MIC [21]: < 1 µg/mL | MIC [24]: 8 µg/mL (≈ 24.1 µM)

NNC(=O)c1ccncc1 [ISONIAZID]
MIC [1]: 0.015 µg/mL (≈ 0.109 µM)

CO[C@H]1/C=C/O[C@@]2(C)Oc3c(C)c(O)c4c(O)c(c(/C=N/N5CCN(C)CC5)c(O)c4c3C2=O)NC(=O)/C(C)=C\C=C\[C@H](C)[C@H](O)[C@@H](C)[C@@H](O)[C@@H](C)[C@H](OC(C)=O)[C@@H]1C [RIFAMPIN]
Emax [2]: 6.2 log10CFU/ml | Emax [6]: 6.3 log10CFU/ml | Emax [11]: 4.2 log10CFU/ml | MIC [1]: 0.03 µg/mL (≈ 0.0365 µM) | Emax [23]: 6.2 log10CFU/ml

CN[C@H](CC(C)C)C(=O)N[C@H]1C(=O)N[C@@H](CC(N)=O)C(=O)N[C@H]2C(=O)N[C@H]3C(=O)N[C@H](C(=O)N[C@H](C(=O)O)c4cc(O)cc(O)c4-c4cc3ccc4O)[C@H](O)c3ccc(c(Cl)c3)Oc3cc2cc(c3O[C@@H]2O[C@H](CO)[C@@H](O)[C@H](O)[C@H]2O[C@H]2C[C@](C)(N)[C@H](O)[C@H](C)O2)Oc2ccc(cc2Cl)[C@H]1O [VANCOMYCIN]
MIC [10]: > 512 µg/mL | MIC [13]: 512 µg/mL (≈ 353 µM) | MIC [19]: 512 µg/mL (≈ 353 µM) | MIC [21]: 256 µg/mL (≈ 177 µM) | MIC [24]: < 1 µg/mL
